Test system: RA patients
Assay: [HDL] determination, Study 1 (RA patients, add-on to MTX)
Type: in vivo, human
Protocol: Double-blind, placebo-controlled add on study in subjects with moderately to severely active RA who have an inadequate response to methotrexate (MTX) (oral or parenteral).
595 subjects randomized to one of 6 dose regimens of Compound 1 (dosed as a [Compound 1:HCl:3H2O]) (3 dose levels administered either once or twice daily) or placebo on top of each subject's stable dose of MTX.
Compound 1 (dosed as a [Compound 1:HCl:3H2O]) is dosed for twelve weeks once daily (q.d.) (50 mg, 100 mg or 200 mg) or twice daily (b.i.d.) (25 mg, 50 mg or 100 mg); or placebo.
At Week 12, the subjects on placebo who have not achieved 20% improvement in swollen joint count (SJC66) and tender joint count (TJC68) are re-randomized automatically to receive Compound 1 (dosed as a [Compound 1:HCl:3H2O]) either at 100 mg q.d. or 50 mg b.i.d. doses in a blinded fashion; subjects on 50 mg q.d. who have not achieved 20% improvement in SJC66 and TJC68 will be assigned to 100 mg q.d. and subjects on 25 mg b.i.d. that have not achieved a 20% improvement in SJC66 and TJC68 will be assigned to 50 mg b.i.d. Subjects who switch treatment at week 12 are handled as if they discontinued at week 12 for the purpose of statistical analysis, whereas subjects in the other groups will maintain their randomized treatment until Week 24.
This assay relies on a homogeneous enzymatic colorimetric test. In the presence of magnesium ions, dextran sulfate selectively forms water-soluble complexes with LDL, VLDL and chylomicrons which are resistant to PEG-modified enzymes.
The cholesterol concentration of [HDL]-cholesterol is determined enzymatically by cholesterol esterase and cholesterol oxidase coupled with PEG to the amino groups (approx. 40%).
In the presence of peroxidase, the hydrogen peroxide generated reacts with 4-amino-antipyrine and Sodium N-(2-hydroxy-3-sulfopropyl)-3,5-dimethoxyaniline (HSDA) to form a purple-blue dye. The color intensity of this dye is directly proportional to the cholesterol concentration and is measured photometrically.
Human serum and plasma samples [HDL] determination was done on a Roche/Hitachi Cobas c 701/702 system which automatically calculate the analyte concentration of each sample. Samples containing precipitates are centrifuged before performing the assay.

[1] = 2 x 50 mg b.i.d. (N = 85), week 12
[2] = 2 x 100 mg b.i.d. (N = 84), week 1
[3] = 2 x 100 mg b.i.d. (N = 84), week 2
[4] = 2 x 100 mg b.i.d. (N = 84), week 4
[5] = 2 x 100 mg b.i.d. (N = 84), week 8
[6] = 2 x 100 mg b.i.d. (N = 84), week 12
[7] = continued 25 mg b.i.d (N = 69), week 1
[8] = continued 25 mg b.i.d (N = 69), week 2
[9] = continued 25 mg b.i.d (N = 69), week 4
[10] = continued 25 mg b.i.d (N = 69), week 8
[11] = continued 25 mg b.i.d (N = 69), week 12
[12] = continued 25 mg b.i.d (N = 69), week 16
[13] = continued 25 mg b.i.d (N = 69), week 20
[14] = continued 25 mg b.i.d (N = 69), week 24
[15] = continued 50 mg b.i.d. (N = 85), week 1
[16] = continued 50 mg b.i.d. (N = 85), week 2
[17] = continued 50 mg b.i.d. (N = 85), week 4
[18] = continued 50 mg b.i.d. (N = 85), week 8
[19] = continued 50 mg b.i.d. (N = 85), week 12
[20] = continued 50 mg b.i.d. (N = 85), week 16
[21] = continued 50 mg b.i.d. (N = 85), week 20
[22] = continued 50 mg b.i.d. (N = 85), week 24
[23] = continued 50 mg q.d. (N = 63), week 1
[24] = continued 50 mg q.d. (N = 63), week 2

## O=C(Nc1nc2cccc(-c3ccc(CN4CCS(=O)(=O)CC4)cc3)n2n1)C1CC1 [Compound 1, cyclopropanecarboxylic acid {5-[4-(1,1-dioxo-thiomorpholin-4-ylmethyl)-phenyl]-[1,2,4]triazolo[1,5-a]pyridin-2yl}-amide]
[1]
  [HDL] Mean CFB - 12 weeks results: 0.10 mmol/L
  [HDL] Mean percentage CFB - 12 weeks results: 9%
  [HDL] Median CFB - 12 weeks results: 0.10 mmol/L
[2]
  [HDL] Mean CFB - 12 weeks results: 0.12 mmol/L
  [HDL] Mean percentage CFB - 12 weeks results: 9%
  [HDL] Median CFB - 12 weeks results: 0.10 mmol/L
[3]
  [HDL] Mean CFB - 12 weeks results: 0.20 mmol/L
  [HDL] Mean percentage CFB - 12 weeks results: 15%
  [HDL] Median CFB - 12 weeks results: 0.18 mmol/L
[4]
  [HDL] Mean CFB - 12 weeks results: 0.25 mmol/L
  [HDL] Mean percentage CFB - 12 weeks results: 20%
  [HDL] Median CFB - 12 weeks results: 0.25 mmol/L
[5]
  [HDL] Mean CFB - 12 weeks results: 0.26 mmol/L
  [HDL] Mean percentage CFB - 12 weeks results: 21%
  [HDL] Median CFB - 12 weeks results: 0.25 mmol/L
[6]
  [HDL] Mean CFB - 12 weeks results: 0.30 mmol/L
  [HDL] Mean percentage CFB - 12 weeks results: 23%
  [HDL] Median CFB - 12 weeks results: 0.25 mmol/L
[7]
  [HDL] Mean CFB - 24 weeks results: 0.01 mmol/L
  [HDL] Mean percentage CFB - 24 weeks results: 0.74%
  [HDL] Median CFB - 24 weeks results: 0.00 mmol/L
[8]
  [HDL] Mean CFB - 24 weeks results: 0.05 mmol/L
  [HDL] Mean percentage CFB - 24 weeks results: 3.77%
  [HDL] Median CFB - 24 weeks results: 0.05 mmol/L
[9]
  [HDL] Mean CFB - 24 weeks results: 0.07 mmol/L
  [HDL] Mean percentage CFB - 24 weeks results: 5.04%
  [HDL] Median CFB - 24 weeks results: 0.08 mmol/L
[10]
  [HDL] Mean CFB - 24 weeks results: 0.08 mmol/L
  [HDL] Mean percentage CFB - 24 weeks results: 6.08%
  [HDL] Median CFB - 24 weeks results: 0.10 mmol/L
[11]
  [HDL] Mean CFB - 24 weeks results: 0.07 mmol/L
  [HDL] Mean percentage CFB - 24 weeks results: 5.78%
  [HDL] Median CFB - 24 weeks results: 0.05 mmol/L
[12]
  [HDL] Mean CFB - 24 weeks results: 0.08 mmol/L
  [HDL] Mean percentage CFB - 24 weeks results: 6.74%
  [HDL] Median CFB - 24 weeks results: 0.05 mmol/L
[13]
  [HDL] Mean CFB - 24 weeks results: 0.05 mmol/L
  [HDL] Mean percentage CFB - 24 weeks results: 5.08%
  [HDL] Median CFB - 24 weeks results: 0.07 mmol/L
[14]
  [HDL] Mean CFB - 24 weeks results: 0.08 mmol/L
  [HDL] Mean percentage CFB - 24 weeks results: 6.59%
  [HDL] Median CFB - 24 weeks results: 0.09 mmol/L
[15]
  [HDL] Mean CFB - 24 weeks results: 0.03 mmol/L
  [HDL] Mean percentage CFB - 24 weeks results: 4.29%
  [HDL] Median CFB - 24 weeks results: 0.05 mmol/L
[16]
  [HDL] Mean CFB - 24 weeks results: 0.12 mmol/L
  [HDL] Mean percentage CFB - 24 weeks results: 9.99%
  [HDL] Median CFB - 24 weeks results: 0.10 mmol/L
[17]
  [HDL] Mean CFB - 24 weeks results: 0.13 mmol/L
  [HDL] Mean percentage CFB - 24 weeks results: 11.50%
  [HDL] Median CFB - 24 weeks results: 0.13 mmol/L
[18]
  [HDL] Mean CFB - 24 weeks results: 0.13 mmol/L
  [HDL] Mean percentage CFB - 24 weeks results: 11.21%
  [HDL] Median CFB - 24 weeks results: 0.14 mmol/L
[19]
  [HDL] Mean CFB - 24 weeks results: 0.10 mmol/L
  [HDL] Mean percentage CFB - 24 weeks results: 9.27%
  [HDL] Median CFB - 24 weeks results: 0.10 mmol/L
[20]
  [HDL] Mean CFB - 24 weeks results: 0.13 mmol/L
  [HDL] Mean percentage CFB - 24 weeks results: 11.13%
  [HDL] Median CFB - 24 weeks results: 0.15 mmol/L
[21]
  [HDL] Mean CFB - 24 weeks results: 0.15 mmol/L
  [HDL] Mean percentage CFB - 24 weeks results: 12.24%
  [HDL] Median CFB - 24 weeks results: 0.16 mmol/L
[22]
  [HDL] Mean CFB - 24 weeks results: 0.11 mmol/L
  [HDL] Mean percentage CFB - 24 weeks results: 10.05%
  [HDL] Median CFB - 24 weeks results: 0.12 mmol/L
[23]
  [HDL] Mean CFB - 24 weeks results: 0.02 mmol/L
  [HDL] Mean percentage CFB - 24 weeks results: 1.75%
  [HDL] Median CFB - 24 weeks results: 0.01 mmol/L
[24]
  [HDL] Mean CFB - 24 weeks results: 0.07 mmol/L
  [HDL] Mean percentage CFB - 24 weeks results: 4.74%
  [HDL] Median CFB - 24 weeks results: 0.08 mmol/L
Continued 50 mg q.d. (N = 63), week 4
  [HDL] Mean CFB - 24 weeks results: 0.06 mmol/L

Source: patent publication US10376520B2, “Methods for the treatment of cardiovascular disorders” (Galapagos NV, priority 2015, dated 2019)
